Like-named read-outs stand apart in the source and are kept apart here.
Columns and labels:
[1] = target: T1, hamster SUR1 (Cricetus cricetus, UniProt Q09427); test: In vitro binding affinity to rodent KATP channels: SUR1 ([3H]glibenclamide displacement, COS cell membranes); settings: hamster SUR1 in COS cell membranes; read-out: Affinity to SUR 1 (converted)
T1 construct: expressed in transfected cells; host or cells: COS-1 cells, transient (pcDNA vector)
Method: 1. In Vitro Binding Affinity of the Test Compounds to Rodent KATP Channels
Competitive binding experiments were performed to characterize the affinity of the test compounds for the binding sites for sulfonylureas and KATP channel openers (KCOS) on hamster SUR1. To assess the affinity for the sulfonylurea site, membranes from COS-cells transiently expressing hamster SUR1 were incubated in the presence of [^3H]glibenclamide with increasing concentrations of test compounds. […] For each test compound four displacement curves were measured (+/−MgATP from the human and hamster isoform). Per curve 9-15 distinct concentrations were tested covering the relevant range. All measurements were repeated at least 5 times in independent experiments.
(§1) [^3H]glibenclamide (specific activity 51 Ci mmol^−1) was obtained from NEN (Dreieich, Germany). Where needed, stock solutions were prepared in dimethylsulfoxide with a final solvent concentration in the media below 1%.
(§2) SUR- or Kir6.x isoforms were used either subcloned in the pcDNA (hamster SUR1, mouse Kir6.2) or pCMV vector (rat SUR2A, SUR2B).
(§3) For transfection, the cells were incubated 4 hours in a Tris-buffered salt solution containing DNA (5-10 μg/ml) plus DEAE-dextran (1 mg/ml), 2 min in HEPES-buffered salt solution plus dimethylsulfoxide (10%) and 4 hours in DMEM-HG plus chloroquine (100 μM). Cells were then returned to DMEM-HG plus 10% FCS. […] For binding experiments, resuspended membranes (final protein concentration 5-50 μg/ml) were incubated in “Tris-buffer” (50 mM, pH 7.4) containing either [^3H]glibenclamide (final concentration 0.3 nM or 3 nM and nonspecific binding defined by 100 nM or 1 μM glibenclamide for SUR1 or SUR2Y1205S-isoforms, respectively) or [^3H]P1075 (final concentration 3 nM, nonspecific binding defined by 100 μM pinacidil) and increasing concentrations of the test compounds. The free Mg^2+ concentration were kept close to 0.7 mM. […] Incubations were carried out for 1 h at room temperature and were terminated by rapid filtration through Whatman GF/B filters.
(§4) The inhibition constant (Ki value) of the test substances was calculated from the respective IC50 value, and was stated as the negative logarithmic value thereof (pKi).

[2] = target: human cannabinoid CB2 receptor (Homo sapiens, UniProt P34972); test: biochemical; type: binding
Method: 3. In Vitro Binding Affinity of the Test Compounds to CB2 Receptors
After incubation of a freshly prepared cell membrane preparation with the [^3H]-ligand, with or without the addition of the compounds described herein, separation of bound and free ligand is performed by filtration over glass-fiber filters. Radioactivity on the filter is measured by liquid scintillation counting.

[3] = target: rat SUR2A (Rattus norvegicus, UniProt Q63563); test: In vitro binding affinity to rodent KATP channels: SUR2A ([3H]P1075 / [3H]glibenclamide displacement, COS cell membranes)
Method: Therefore, two strategies can be used to detect binding to the sulfonylurea site on SUR2A.
Membranes from COS-cells transiently expressing rat SUR2A were incubated in the presence of the radioligands with increasing concentrations of test compounds as described above. […] For each test compound four displacement curves were measured (displacement of [^3H]P1075 from the rat isoform of the wild type receptor and displacement of [^3H]glibenclamide from the rat isoform of SUR2AY1205S). Per curve 9-15 distinct concentrations were tested covering the relevant range. All measurements were repeated at least 5 times in independent experiments.
as §1, §2, §3, §4

[4] = cloned human CB2 receptor expressed in CHO cells, read-out: Affinity to CB2 (converted)
[5] = rat SUR2A in COS cell membranes

rat SUR2A, sequence (Q63563 whole entry): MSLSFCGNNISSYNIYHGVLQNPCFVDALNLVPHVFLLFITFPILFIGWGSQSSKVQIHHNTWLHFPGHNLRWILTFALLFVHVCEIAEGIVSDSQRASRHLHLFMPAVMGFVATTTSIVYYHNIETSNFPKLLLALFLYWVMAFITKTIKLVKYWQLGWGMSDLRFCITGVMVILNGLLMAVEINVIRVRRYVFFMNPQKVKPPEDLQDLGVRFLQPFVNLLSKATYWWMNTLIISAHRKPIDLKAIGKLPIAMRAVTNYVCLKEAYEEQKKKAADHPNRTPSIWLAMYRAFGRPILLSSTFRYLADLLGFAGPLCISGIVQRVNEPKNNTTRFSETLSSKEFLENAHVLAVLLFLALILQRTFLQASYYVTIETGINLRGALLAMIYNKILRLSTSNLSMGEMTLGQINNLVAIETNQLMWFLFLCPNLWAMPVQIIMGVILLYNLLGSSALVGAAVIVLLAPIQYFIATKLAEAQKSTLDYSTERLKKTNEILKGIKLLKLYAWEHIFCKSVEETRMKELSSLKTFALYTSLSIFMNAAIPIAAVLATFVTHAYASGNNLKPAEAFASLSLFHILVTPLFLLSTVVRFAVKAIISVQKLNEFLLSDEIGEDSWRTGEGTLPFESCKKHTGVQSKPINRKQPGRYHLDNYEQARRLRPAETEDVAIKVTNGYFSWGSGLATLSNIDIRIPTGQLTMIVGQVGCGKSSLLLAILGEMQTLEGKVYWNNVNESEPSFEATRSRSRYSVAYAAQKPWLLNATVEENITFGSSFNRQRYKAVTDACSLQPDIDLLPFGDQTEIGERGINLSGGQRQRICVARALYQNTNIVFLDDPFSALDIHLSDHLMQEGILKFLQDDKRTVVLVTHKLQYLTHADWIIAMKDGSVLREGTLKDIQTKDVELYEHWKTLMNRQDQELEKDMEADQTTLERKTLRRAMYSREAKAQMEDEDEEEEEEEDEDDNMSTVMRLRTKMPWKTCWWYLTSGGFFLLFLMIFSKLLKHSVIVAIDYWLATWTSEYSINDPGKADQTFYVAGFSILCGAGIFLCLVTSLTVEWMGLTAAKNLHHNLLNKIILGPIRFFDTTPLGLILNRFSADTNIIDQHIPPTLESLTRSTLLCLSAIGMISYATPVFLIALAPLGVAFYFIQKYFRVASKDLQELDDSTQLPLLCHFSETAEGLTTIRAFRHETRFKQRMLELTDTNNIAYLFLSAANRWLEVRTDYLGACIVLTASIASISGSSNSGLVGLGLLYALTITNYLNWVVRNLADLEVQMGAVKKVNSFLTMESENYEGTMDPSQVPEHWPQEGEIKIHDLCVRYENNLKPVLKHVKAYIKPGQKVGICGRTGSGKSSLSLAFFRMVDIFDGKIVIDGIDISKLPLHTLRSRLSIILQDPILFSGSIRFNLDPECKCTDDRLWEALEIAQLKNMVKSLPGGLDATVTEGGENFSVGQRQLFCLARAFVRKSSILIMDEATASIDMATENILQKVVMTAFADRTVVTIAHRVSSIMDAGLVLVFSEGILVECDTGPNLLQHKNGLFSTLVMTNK
human cannabinoid CB2 receptor, sequence (P34972 whole entry): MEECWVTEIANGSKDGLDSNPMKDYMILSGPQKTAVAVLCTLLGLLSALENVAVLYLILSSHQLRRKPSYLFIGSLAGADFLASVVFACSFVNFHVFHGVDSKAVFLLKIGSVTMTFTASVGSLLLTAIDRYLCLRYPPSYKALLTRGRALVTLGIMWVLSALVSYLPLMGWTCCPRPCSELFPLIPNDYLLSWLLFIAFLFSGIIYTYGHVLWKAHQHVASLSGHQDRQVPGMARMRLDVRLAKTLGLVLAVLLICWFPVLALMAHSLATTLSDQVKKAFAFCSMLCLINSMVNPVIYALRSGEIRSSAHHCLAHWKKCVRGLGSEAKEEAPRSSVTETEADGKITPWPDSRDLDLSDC
T1 sequence (Q09427 whole entry): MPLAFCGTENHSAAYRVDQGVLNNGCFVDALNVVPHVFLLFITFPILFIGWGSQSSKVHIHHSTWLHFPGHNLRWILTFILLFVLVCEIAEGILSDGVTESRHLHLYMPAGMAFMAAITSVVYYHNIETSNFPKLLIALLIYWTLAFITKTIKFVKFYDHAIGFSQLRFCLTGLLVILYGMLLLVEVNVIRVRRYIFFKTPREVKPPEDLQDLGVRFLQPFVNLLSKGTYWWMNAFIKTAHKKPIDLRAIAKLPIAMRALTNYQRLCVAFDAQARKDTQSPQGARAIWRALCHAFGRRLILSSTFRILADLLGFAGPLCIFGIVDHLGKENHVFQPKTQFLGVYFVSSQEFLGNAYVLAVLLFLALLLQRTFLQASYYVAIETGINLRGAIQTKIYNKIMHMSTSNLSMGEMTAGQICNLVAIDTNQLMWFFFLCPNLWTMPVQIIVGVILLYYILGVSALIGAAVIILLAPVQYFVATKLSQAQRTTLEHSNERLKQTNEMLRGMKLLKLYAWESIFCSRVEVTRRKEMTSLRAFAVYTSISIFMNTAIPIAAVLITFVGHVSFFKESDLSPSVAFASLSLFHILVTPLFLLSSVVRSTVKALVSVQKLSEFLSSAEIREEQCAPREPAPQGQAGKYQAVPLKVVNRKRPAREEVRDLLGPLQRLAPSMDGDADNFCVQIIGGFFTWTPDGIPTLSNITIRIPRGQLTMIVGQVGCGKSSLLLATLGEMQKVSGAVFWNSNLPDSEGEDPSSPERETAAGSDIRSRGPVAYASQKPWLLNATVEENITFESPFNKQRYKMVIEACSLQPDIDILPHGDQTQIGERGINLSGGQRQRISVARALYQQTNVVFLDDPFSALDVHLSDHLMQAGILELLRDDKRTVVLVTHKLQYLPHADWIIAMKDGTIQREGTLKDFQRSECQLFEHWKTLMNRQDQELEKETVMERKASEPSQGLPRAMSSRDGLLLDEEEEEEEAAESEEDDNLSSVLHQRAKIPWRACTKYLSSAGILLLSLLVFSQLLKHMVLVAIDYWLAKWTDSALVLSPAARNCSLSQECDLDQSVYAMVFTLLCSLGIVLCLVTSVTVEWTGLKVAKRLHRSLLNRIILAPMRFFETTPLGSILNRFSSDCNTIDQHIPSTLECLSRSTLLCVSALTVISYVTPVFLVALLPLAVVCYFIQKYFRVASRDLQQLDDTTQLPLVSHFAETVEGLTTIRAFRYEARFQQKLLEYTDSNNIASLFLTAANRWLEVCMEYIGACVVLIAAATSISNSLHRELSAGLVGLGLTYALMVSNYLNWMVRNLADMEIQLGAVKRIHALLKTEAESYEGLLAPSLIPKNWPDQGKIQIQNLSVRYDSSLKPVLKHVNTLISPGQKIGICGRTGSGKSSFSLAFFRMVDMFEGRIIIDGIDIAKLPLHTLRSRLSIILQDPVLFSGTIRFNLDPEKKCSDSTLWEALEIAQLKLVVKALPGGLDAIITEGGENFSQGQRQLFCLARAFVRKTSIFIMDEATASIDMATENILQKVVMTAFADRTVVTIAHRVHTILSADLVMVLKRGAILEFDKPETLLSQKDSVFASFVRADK

| Structure (SMILES) | Ki [1] [µM] | Ki [2, 4] [µM] | pKi [3] | Ki [2] [µM] | pKi [3, 5] |
| --- | --- | --- | --- | --- | --- |
| CCc1c(C(=O)NN2CCCCC2)nn(-c2ccc(Cl)cc2Cl)c1-c1ccc(Br)cc1 [SR-147778, 5-(4-Bromo-phenyl)-1-(2,4-dichloro-phenyl)-4-ethyl-1H-pyrazole-3-carboxylic acid piperidin-1-ylamide, reference compound] | 3.16 | 1.26 |  |  |  |
| CCCCC/C=C\C/C=C\C/C=C\C/C=C\CCCC(=O)OC(CO)CO [2-AG, Icosa-5,8,11,14-tetraenoic acid 2-hydroxy-1-hydroxymethyl-ethyl ester, reference compound] | 2.51 | 3.98 |  |  |  |
| CCN(CC)S(=O)(=O)N=C(NC)N1CC(O)(c2ccccc2)C(c2ccc(Cl)cc2)=N1 (stereo not drawn) [N,N-Diethylamino-1-sulfonic acid [3-(4-chloro-phenyl)-4-hydroxy-4-phenyl-4,5-dihydro-pyrazol-1-yl]-methylamino-methyleneamide] | 100 |  | 5.9 |  |  |
| CNC(=NS(=O)(=O)N1CCOCC1)C1=NN(c2ccc(Cl)cc2Cl)C(c2ccccc2)C1 (stereo not drawn) [Morpholine-4-sulfonic acid [1-(2,4-dichloro-phenyl)-5-phenyl-4,5-dihydro-1H-pyrazol-3-yl]-methylamino-methyleneamide] | 5.01 |  | 5.0 |  |  |
| CCSc1c(C(=O)NN2CCCCC2)nc(-c2ccc(Cl)cc2Cl)n1-c1ccc(Cl)cc1 [1-(4-Chloro-phenyl)-2-(2,4-dichloro-phenyl)-5-ethylsulfanyl-1H-imidazole-4-carboxylic acid piperidin-1-ylamide] | 7.94 |  | 5.3 |  |  |
| CNC(=NS(=O)(=O)c1ccc(C(F)(F)F)cc1)N1CC(c2ccccc2)C(c2ccc(Cl)cc2)=N1 (stereo not drawn) [N-{[3-(4-Chloro-phenyl)-4-phenyl-4,5-dihydro-pyrazol-1-yl]-methylamino-methylene}-4-trifluoromethyl-benzene-sulfonamide] | 0.501 |  | 4.2 |  |  |
| Cc1c(C(=O)NC2CCC(O)CC2)nc(-c2ccc(Cl)cc2Cl)n1-c1ccc(Cl)cc1 (stereo not drawn) [1-(4-Chloro-phenyl)-2-(2,4-dichloro-phenyl)-5-methyl-1H-imidazole-4-carboxylic acid (4-hydroxy-cyclo-hexyl)-amide] | 100 |  | 5.0 |  |  |
| O=C(NS(=O)(=O)c1ccc(Cl)cc1)N1CC(c2ccccc2)C(c2ccc(Cl)cc2)=N1 (stereo not drawn) [4-Chloro-N-[3-(4-chloro-phenyl)-4-phenyl-4,5-dihydro-pyrazole-1-carbonyl]-benzenesulfonamide] | 3.16 |  | 4.8 |  |  |
| CCCCC/C=C\C/C=C\C/C=C\C/C=C\CCCCOC(CO)CO [Noladineether, reference compound] | 3.98 |  |  | 0.251 |  |
| CCCCCc1nc(-c2ccc(Cl)cc2Cl)n(-c2ccc(Cl)cc2)c1C [1-(4-Chloro-phenyl)-2-(2,4-dichloro-phenyl)-5-methyl-4-pentyl-1H-imidazole] | 1.58 |  |  |  | 5.3 |
| O=S(=O)(N=C(NCCCCN1CCCC1)N1CC(c2ccccc2)C(c2ccc(Cl)cc2)=N1)c1ccc(Cl)cc1 (stereo not drawn) [4-Chloro-N-[[3-(4-chloro-phenyl)-4-phenyl-4,5-dihydro-pyrazol-1-yl]-(4-pyrrolidin-1-yl-butylamino)-methylene]-benzenesulfonamide] | 50.1 |  | 5.4 |  |  |
| O=S(=O)(N=C(NC1CCNCC1)N1CC(c2ccccc2)C(c2ccc(Cl)cc2)=N1)c1ccc(Cl)cc1 (stereo not drawn) [4-Chloro-N-[[3-(4-chloro-phenyl)-4-phenyl-4,5-dihydro-pyrazol-1-yl]-(piperidin-4-ylamino)-methylene]-benzenesulfonamide] | 31.6 |  | 4.6 |  |  |
| CN(C)S(=O)(=O)N=C(NCCF)N1CC(c2ccccc2)C(c2ccc(Cl)cc2)=N1 (stereo not drawn) [N,N-Dimethylamino-1-sulfonic acid [3-(4-chloro-phenyl)-4-phenyl-4,5-dihydro-pyrazol-1-yl]-(2-fluoro-ethylamino)-methyleneamide] | 50.1 |  | 4.0 |  |  |
| CCCCCc1nc(C(=O)NC23CC4CC(CC(C4)C2)C3)sc1-c1ccccc1 [N-Adamantyl-4-pentyl-5-phenyl-thiazole-2-carboxamide] | 100 |  |  |  | 4.0 |
| O=C(NN1CCCCC1)c1nc(-c2ccc(Cl)cc2Cl)n(-c2ccc(Cl)cc2)c1CN1CCCC1 [1-(4-Chloro-phenyl)-2-(2,4-dichloro-phenyl)-5-pyrrolidin-1-ylmethyl-1H-imidazole-4-carboxylic acid piperidin-1-ylamide] | 100 |  |  |  | 4.6 |
| CS(=O)(=O)C(=C1CN(C(c2ccc(Cl)cc2)c2ccc(Cl)cc2)C1)c1cc(F)cc(F)c1 [1-[Bis-(4-chloro-phenyl)-methyl]-3-[(3,5-difluoro-phenyl)-methanesulfonyl-methylene]-azetidine, reference compound] | 5.01 |  | 5.1 |  |  |
| CS(=O)(=O)c1c(C(=O)NN2CCCCC2)nc(-c2ccc(Cl)cc2Cl)n1-c1ccc(Cl)cc1 [1-(4-Chloro-phenyl)-2-(2,4-dichloro-phenyl)-5-methanesulfonyl-1H-imidazole-4-carboxylic acid piperidin-1-ylamide] | 100 |  | 5.0 |  |  |
| CCCCC(C)(O)c1nc(-c2ccc(Cl)cc2Cl)n(-c2ccc(Cl)cc2)c1C (stereo not drawn) [2-[1-(4-Chloro-phenyl)-2-(2,4-dichloro-phenyl)-5-methyl-1H-imidazol-4-yl]-hexan-2-ol] | 1.58 |  | 5.3 |  |  |
| O=S(=O)(N=C(NCC1CC1)N1CC(c2ccccc2)C(c2ccc(Cl)cc2)=N1)N1CCOCC1 (stereo not drawn) | 1 |  | 5.7 |  |  |
| O=C(NN1CCCC1)c1nc(-c2ccc(Cl)cc2)n(-c2ccc(Cl)cc2Cl)n1 [5-(4-Chloro-phenyl)-1-(2,4-dichloro-phenyl)-1H-[1,2,4]triazole-3-carboxylic acid pyrrolidin-1-ylamide] | 100 |  | 4.4 |  |  |
| CCc1c(C(=O)NN2CCCCC2)nc(-c2ccc(Cl)cc2Cl)n1-c1ccc(Br)cc1 [1-(4-Bromo-phenyl)-2-(2,4-dichloro-phenyl)-5-ethyl-1H-imidazol-4-carboxylic acid piperidin-1-ylamide] | 3.98 |  | 5.3 |  |  |
| CON(C)C(=NS(=O)(=O)c1ccc(Cl)cc1)N1CC(c2ccccc2)C(c2ccc(Cl)cc2)=N1 (stereo not drawn) [4-Chloro-N-[[3-(4-chloro-phenyl)-4-phenyl-4,5-dihydro-pyrazol-1-yl]-(methoxy-methyl-amino)-methylene]-benzenesulfonamide] | 1.26 |  | 5.9 |  |  |
| CON/C(=N\S(=O)(=O)c1ccc(Cl)cc1)N1C[C@H](c2cccc(F)c2)C(c2ccc(Cl)cc2)=N1 [4-Chloro-N-{[3-(4-chloro-phenyl)-4-(3-fluoro-phenyl)-4,5-dihydro-pyrazol-1-yl]-methoxyamino-methylene}-benzenesulfonamide] | 2.51 |  | 6.1 |  |  |
| Cn1c(C(=O)NC2CCCCC2)nc(-c2ccc(Cl)cc2)c1-c1ccc(Cl)cc1Cl [4-(4-Chloro-phenyl)-5-(2,4-dichloro-phenyl)-1-methyl-1H-imidazole-2-carboxylic acid cyclohexylamide] | 100 |  |  |  | 4.7 |
| O=C(NN1CCCCC1)c1cn(-c2ccc(C(F)(F)F)cc2)c(-c2ccccc2Cl)n1 [2-(2-Chloro-phenyl)-1-(4-trifluoromethyl-phenyl)-1H-imidazole-4-carboxylic acid piperidin-1-ylamide] | 1 |  | 5.7 |  |  |
| CCc1c(C(=O)NN2CCCCC2)nc(-c2ccccc2Cl)n1-c1ccc(Cl)cn1 [2-(2-Chloro-phenyl)-1-(5-chloro-pyridin-2-yl)-5-ethyl-1H-imidazole-4-carboxylic acid piperidin-1-ylamide] | 100 |  | 4.8 |  |  |
| O=C(NN1CCCCC1)c1nc(-c2ccc(Cl)cc2Cl)n(-c2ccc(Cl)cc2)n1 [1-(4-Chloro-phenyl)-5-(2,4-dichloro-phenyl)-1H-[1,2,4]triazole-3-carboxylic acid piperidin-1-yl-amide] | 10 |  | 5.0 |  |  |
